The text below walks through data of ChEMBL document CHEMBL1201862, “PubChem BioAssay data set” (2004).

Some test systems named below: SNB-75; HOP-92; SF-295; SNB-78; K562; OVCAR-4; 786-0; OVCAR-5; OVCAR-8; RPMI-8226; LOX IMVI; TK-10; OVCAR-3; Malme-3M; SW-620; SK-MEL-28; NCI-H460.
Common to all, as to assay: NCI anticancer screen, dose series, 48 h

Each structure is given as a SMILES string.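 Grown in 96-well plates, cells were treated for 48 hours with each compound at five concentrations. Insufficient inhibition: endpoint recorded as highest concentration tested. The concentration for 50% growth inhibition is given as GI50.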 Activity calls are given as the source filed them. Rule as the data show it: active = GI50 up to about 1.1 µM and inactive = higher.

On to `COc1ccc2c(c1)C1(C=N2)CCN(C(C)=O)CC1`, for which the GI50 is 41.1 µM (inactive) with SNB-75; 87.9 µM (inactive) in the test on HOP-92; > 100 µM (inactive) in the test on SF-295; > 100 µM (inactive) with SNB-78; > 100 µM (inactive) in the test on K562; > 100 µM (inactive) in the test with OVCAR-4. Further, the GI50 in the test on 786-0 is > 100 µM (inactive); with OVCAR-5 it was > 100 µM (inactive); with OVCAR-8 it was > 100 µM (inactive); in the test with RPMI-8226 it was 50.4 µM (inactive); in the test with LOX IMVI, > 100 µM (inactive); with TK-10, > 100 µM (inactive). In addition, the GI50 with OVCAR-3, in the test with Malme-3M, with SW-620, in the test on SK-MEL-28 and in the test with NCI-H460 was > 100 µM (inactive) throughout.
For the molecule `CC(C(=O)c1ccccc1)C1(O)C(=O)Nc2ccccc21` (centres undefined), the GI50 in the test with SNB-75, in the test on HOP-92, in the test on SF-295, with SNB-78, in the test on K562 and in the test on OVCAR-4 was > 100 µM (inactive) throughout. Besides, the GI50 in the test with 786-0, in the test with OVCAR-5, in the test on RPMI-8226, with LOX IMVI, in the test on TK-10 and in the test with OVCAR-3 was > 100 µM (inactive) each time. The GI50 with Malme-3M, in the test on SW-620, with SK-MEL-28 and with NCI-H460 was > 100 µM (inactive) in each case.
As to `CC1(C)CC(=O)C(CC2C(=O)c3ccccc3C2=O)C(=O)C1`, the GI50 in the test on SNB-75, with HOP-92, with SF-295, with SNB-78, with K562 and in the test with OVCAR-4 was > 100 µM (inactive) in each case. Also, the GI50 in the test with 786-0, in the test on OVCAR-5, in the test with OVCAR-8, in the test with LOX IMVI, in the test on TK-10 and with OVCAR-3 was > 100 µM (inactive) each time. The GI50 in the test with Malme-3M, with SW-620, in the test with SK-MEL-28 and in the test on NCI-H460 was > 100 µM (inactive) in each case.
`N#CC1=C(N)N2C(=O)/C(=C/c3ccccc3)SC2C(c2nc3ccccc3[nH]2)=C1c1ccccc1` (centres undefined): the GI50 is 1.74 µM (inactive) in the test on SNB-75; 0.687 µM (active) in the test with HOP-92; 2.53 µM (inactive) in the test with SF-295; 2.52 µM (inactive) in the test on SNB-78; 5.32 µM (inactive) with K562; 2.42 µM (inactive) with OVCAR-4. For the same molecule, the GI50 is 2.72 µM (inactive) with 786-0; 2.54 µM (inactive) with OVCAR-5; 2.46 µM (inactive) in the test with OVCAR-8; 1.73 µM (inactive) with LOX IMVI; 2.42 µM (inactive) in the test on TK-10; 1.89 µM (inactive) in the test on OVCAR-3. In addition, the GI50 in the test with Malme-3M is 1.75 µM (inactive); in the test on SW-620, 3.68 µM (inactive); in the test with SK-MEL-28 it was 3.12 µM (inactive); with NCI-H460, 3.09 µM (inactive).
With `COc1cc2c(c(OC)c1OC)-c1ccc(SC)c(=O)cc1C(CC(=O)Oc1cccc(C#N)c1)C2` (centres undefined), the GI50 with SNB-75 is 0.291 µM (active); with HOP-92, 2.31 µM (inactive); with SF-295, 0.266 µM (active); in the test on SNB-78 it was 0.57 µM (active); in the test on K562, 0.181 µM (active); in the test with OVCAR-4, 3.32 µM (inactive). For the same molecule, the GI50 with 786-0 was 0.475 µM (active); in the test with OVCAR-8, 0.423 µM (active); in the test with RPMI-8226, 0.583 µM (active); in the test with LOX IMVI, 0.484 µM (active); in the test with OVCAR-3, 0.232 µM (active); in the test on Malme-3M it was 0.175 µM (active). The GI50 in the test with SW-620 was 0.327 µM (active); with SK-MEL-28, 0.724 µM (active); in the test with NCI-H460, 0.365 µM (active).
In the case of `CCCCN(CCCC)/C(=N\C#N)NCc1ccccc1`, the GI50 in the test on SNB-75 was 28.1 µM (inactive); with HOP-92, 14.4 µM (inactive); with SF-295, 14.3 µM (inactive); with SNB-78, 26.5 µM (inactive); in the test on K562, 7.43 µM (inactive); in the test with OVCAR-4, 28.6 µM (inactive). Besides, the GI50 in the test with 786-0 was 19 µM (inactive); with OVCAR-5, 26.4 µM (inactive); in the test with OVCAR-8, 26.1 µM (inactive); with RPMI-8226 it was 13.7 µM (inactive); in the test with LOX IMVI, 16.5 µM (inactive); in the test with TK-10, 25.1 µM (inactive). Besides, the GI50 in the test on OVCAR-3 is 13.6 µM (inactive); in the test with Malme-3M, 32.4 µM (inactive); with SW-620 it was 15.8 µM (inactive); in the test on NCI-H460 it was 13.9 µM (inactive).
In the case of `O=C(O)CCc1coc2ccc(O)cc12`, the GI50 with SNB-75 is > 100 µM (inactive); in the test on HOP-92, 75.7 µM (inactive); in the test with SF-295 it was > 100 µM (inactive); with SNB-78, > 100 µM (inactive); in the test with K562, > 100 µM (inactive); in the test on OVCAR-4, > 100 µM (inactive). For the same molecule, the GI50 in the test with 786-0, in the test on OVCAR-8, with RPMI-8226, with LOX IMVI, with TK-10 and with OVCAR-3 was > 100 µM (inactive) each time. Besides, the GI50 with SW-620, in the test on SK-MEL-28 and in the test with NCI-H460 was > 100 µM (inactive) each time.
Regarding `C=CCNC(=S)N1CC(C)C(=O)Nc2cc(Cl)ccc21` (centres undefined), the GI50 in the test on SNB-75, with HOP-92, in the test with SF-295, in the test with SNB-78, in the test on K562 and in the test on OVCAR-4 was > 100 µM (inactive) in each case. Moreover, the GI50 is > 100 µM (inactive) in the test with 786-0; > 100 µM (inactive) with OVCAR-5; > 100 µM (inactive) in the test with OVCAR-8; > 100 µM (inactive) in the test on RPMI-8226; > 100 µM (inactive) in the test with TK-10; 82 µM (inactive) in the test on Malme-3M. Also, the GI50 in the test with SK-MEL-28 and in the test on NCI-H460 was > 100 µM (inactive) each time.
For the molecule `COc1ccc2nc(NC(=O)C(=O)C(C(=O)c3ccccc3-c3ccccc3)C3OC(=O)c4ccccc43)sc2c1` (centres undefined), the GI50 in the test on SNB-75 was 16.1 µM (inactive); in the test with HOP-92, 16.5 µM (inactive); in the test with SF-295, 27.2 µM (inactive); in the test with SNB-78, 35 µM (inactive); in the test on K562, 30.2 µM (inactive); in the test on 786-0, 15.6 µM (inactive). Moreover, the GI50 in the test on OVCAR-5 was 18.7 µM (inactive); in the test on OVCAR-8, 20.1 µM (inactive); in the test on RPMI-8226, 10.7 µM (inactive); with LOX IMVI, 17 µM (inactive); in the test with TK-10, 25.2 µM (inactive); with OVCAR-3, 18.5 µM (inactive). Moreover, the GI50 was 12.1 µM (inactive) in the test with Malme-3M, 23.8 µM (inactive) in the test on SW-620, 20.5 µM (inactive) with SK-MEL-28 and 21.7 µM (inactive) in the test on NCI-H460.
As for `Cc1cc(NS(=O)(=O)c2ccc(NC(=O)c3ccc(Cl)c4c(Nc5ccc(S(N)(=O)=O)cc5)c5ccccc5nc34)cc2)no1`, the GI50 in the test on SNB-75 is 20.3 µM (inactive); with HOP-92, 19.7 µM (inactive); with SF-295, 25.1 µM (inactive); with SNB-78 it was 36.8 µM (inactive); in the test on K562, 26.9 µM (inactive); in the test with OVCAR-4 it was 24.3 µM (inactive). In addition, the GI50 with 786-0 is 18.3 µM (inactive); in the test on OVCAR-5, 24.5 µM (inactive); with OVCAR-8, 17.9 µM (inactive); with LOX IMVI, 14.6 µM (inactive); in the test with TK-10 it was 27 µM (inactive); with OVCAR-3 it was 20 µM (inactive). Besides, the GI50 in the test with Malme-3M was 15.5 µM (inactive); in the test on SW-620, 17.4 µM (inactive); in the test on SK-MEL-28, 20.3 µM (inactive); with NCI-H460, 25.8 µM (inactive).
Take `Cc1c(/C=N/NC(=O)c2ccccc2)c(=O)n(-c2ccccc2)n1C`: the GI50 in the test with SNB-75, with HOP-92, with SF-295, with SNB-78, in the test on K562 and with OVCAR-4 was > 100 µM (inactive) each time. Moreover, the GI50 in the test with 786-0, with OVCAR-8, with RPMI-8226, with LOX IMVI, in the test on TK-10 and with OVCAR-3 was > 100 µM (inactive) in each case. Also, the GI50 with Malme-3M, in the test with SW-620, with SK-MEL-28 and in the test on NCI-H460 was > 100 µM (inactive) each time.
In the case of `O=C1OC(O)C(Oc2c(Cl)cccc2Cl)=C1Cl` (centres undefined), the GI50 was 25.6 µM (inactive) in the test with SNB-75; 18 µM (inactive) with HOP-92; 17.5 µM (inactive) in the test on SF-295; 36.1 µM (inactive) with SNB-78; 17.3 µM (inactive) in the test on K562; 17.1 µM (inactive) with 786-0. For the same molecule, the GI50 with OVCAR-5 was 19.4 µM (inactive); with OVCAR-8, 17.5 µM (inactive); in the test with RPMI-8226, 18.1 µM (inactive); in the test with LOX IMVI, 17.9 µM (inactive); in the test with TK-10, 23.6 µM (inactive); with OVCAR-3, 13.5 µM (inactive). Also, the GI50 is 26.5 µM (inactive) in the test with Malme-3M, 15.1 µM (inactive) in the test with SW-620, 20.2 µM (inactive) in the test with SK-MEL-28 and 15.5 µM (inactive) in the test on NCI-H460.
Take `c1ccc2[nH]c(-c3nc4ccccc4o3)nc2c1`: the GI50 with SNB-75, in the test on HOP-92, with SF-295, in the test on SNB-78, in the test on OVCAR-4 and in the test on 786-0 was > 100 µM (inactive) throughout. Also, the GI50 with OVCAR-5 was > 100 µM (inactive); in the test with OVCAR-8 it was > 100 µM (inactive); in the test with RPMI-8226 it was 81.3 µM (inactive); in the test on LOX IMVI, 66.1 µM (inactive); in the test on TK-10, 45.1 µM (inactive); in the test on OVCAR-3, > 100 µM (inactive). Also, the GI50 in the test on Malme-3M, in the test on SK-MEL-28 and in the test on NCI-H460 was > 100 µM (inactive) each time.
